# According to US20140051729A1, “COMPOSITIONS AND METHODS FOR TREATING DEGENERATIVE MUSCLE CONDITIONS” (University of Washington, priority 2011, published 2014):
# Experiments:
# mdx mice = assay: Histopathology of CTX injured and uninjured muscles of aged mdx mice after IP THI; assay type: in vivo, mouse
# Description: Muscle repair in mdx mice become impaired during aging resulting in muscle atrophy and dystrophy. The effects of THI on the histopathology were assessed in injured and uninjured muscles from two groups of aged mdx mice (n=6, 11 month-old females and n=7, 16 month-old males). In this experiment, right TAs and quadriceps muscles were uninjured, while left counterparts were injured using CTX. The mdx mice were injected with THI, or PBS as a vehicle control, immediately following injury with CTX 5 times during a 3-day period. Injured and uninjured muscles were harvested 18 days post injury to survey the effects of THI on muscle repair. […] Injured muscles were lighter than uninjured muscles in vehicle treated mice, an approximate weight loss of 20% (*p<0.05).
# The left TAs and quadriceps of six, 10 month old female mdx4cv mice were injected with 50 μl and 100 μl CTX respectively. Three mice were injected IP with 0.15 mg/ml THI in PBS, twice daily (injections 8 hours apart) immediately after and for the first three days following injury. The three remaining animals were injected IP with PBS as vehicle controls. 1% Evans Blue dye was injected IV on day 17 post CTX, to label persistently damaged (dye permeable) muscle fibers. Animals were euthanized 18 days post injury and muscles were frozen under liquid nitrogen cooled isopentane in optimal cutting temperature (OCT). All myofibers were measured for the minimum diameters on the cross-sections of mouse quadriceps muscle using image J software. 750˜850 myofibers were counted for three mice treated with PBS or THI with or without CTX injury.
# All mouse muscles were frozen directly in OCT with liquid nitrogen cooled in isopentane and sections of 8 μm thickness were obtained. Tissue for x-gal staining, was fixed for 10 min with 2% formaldehyde/0.2% glutaraldehyde and incubated overnight at 37° C. with staining buffer (PBS with 1 mg/ml x-gal, 5 mM potassium ferricyanide, 5 mM potassium ferrocyanide, and 2 mM […] (all from Fisher). Oil Red-O and Picrosirius red staining were done following established protocols. For eMyHC staining, tissue was first fixed with 2% formaldehyde for 5 min, treated with streptavidin/avidin blocking kit (Vector labs), and blocked with IgG block from M.O.M kit (Vector Labs) for 5 hrs at 4° C. Following blockade, concentrated mouse anti-eMyHC (clone F1.652 received at 357 μg/ml IgG) obtained from the developmental studies hybridoma bank (DHSB, University of Iowa) was administered at 1:400 dilution, overnight at 4° C. The remainder of the staining was done following mouse-on-mouse (M.O.M) kit staining instructions. For laminin staining tissue was also fixed with 2% formaldehyde for 5 min, and then treated with polyclonal rabbit anti-laminin (Sigma) for 1 hr at a 1:400 dilution in PBS+1% BSA. Following washes, Alexa Fluor 488 conjugated goat anti-rabbit IgG (Invitrogen) was administered at 1:800 dilution for 1 hr. Controls omitting the primary antibody were included with all staining. Staining quantifications were all done using ImageJ v1.40 (Wayne Rasband, NIH) cell counter plugin (Kurt De Vos, University of Sheffield). Calculations, statistics, and graphs were generated with Microsoft Excel. Brightfield photographs were captured using either a Fisher Micromaster digital inverted or upright microscopes with Micron software. Fluorescent photographs were captured with a monochromatic camera using a Zeiss Axiovert 200 microscope. Individual fluorescent channels were colored and merged using Adobe Photoshop CS2. Brightness contrast levels were adjusted to increase visibility and reduce background in most photographs.
# Both stainings were done using freshly frozen mdx muscles. Pax7 staining was done as outlined by Clever et al., with slight modification (Clever J L, et al. Am J Physiol Cell Physiol. 2010; 298:C1087-C1099). Sections were fixed overnight in 4% formaldehyde (from PFA powder) at 4° C. […]
# [1] = tested on: plasma creatine kinase (CK) activity; assay: Plasma creatine kinase assay in mdx mice; assay type: in vivo, mouse; details: 5-month-old mdx males, day 4 post CTX, vs vehicle
# Description: The effects of THI in the dystrophic mdx mouse model were studied. […] THI was administered intraperitoneally (IP) to three groups of mdx mice. Right tibialis anterior (TA) and quadriceps muscles were uninjured, while left counterparts were injured using CTX, a well characterized model of acute injury where initial muscle destruction is followed by a rapid myogenic response. The mdx mice were injected with THI, or PBS as a vehicle control, immediately following injury with CTX 5 times during a 3-day period (FIG. 3a). In the first group (N=6, 5-month-old males) the mdx mice were sacrificed at day 4 to analyze the efficacy of the administration of THI for increasing S1P levels in spleen, CTX injured quadriceps, and uninjured quadriceps. The effects of THI administration on the plasma creatine kinase (CK) activity level was also measured.
# Mdx mouse plasma samples were diluted 1:50 and total creatine kinsase activity was measured by an enzymatic rate method using a Beckman Coulter instrument. Relative levels were then normalized to body weight.
# SPL = biological target: T1, SPL (Mus musculus, UniProt Q8R0X7); details: Schwab et al., Science 2005; cited from earlier work
# T1 construct: host or cells: mice (in vivo)
# T1 sequence (Q8R0X7 1-568): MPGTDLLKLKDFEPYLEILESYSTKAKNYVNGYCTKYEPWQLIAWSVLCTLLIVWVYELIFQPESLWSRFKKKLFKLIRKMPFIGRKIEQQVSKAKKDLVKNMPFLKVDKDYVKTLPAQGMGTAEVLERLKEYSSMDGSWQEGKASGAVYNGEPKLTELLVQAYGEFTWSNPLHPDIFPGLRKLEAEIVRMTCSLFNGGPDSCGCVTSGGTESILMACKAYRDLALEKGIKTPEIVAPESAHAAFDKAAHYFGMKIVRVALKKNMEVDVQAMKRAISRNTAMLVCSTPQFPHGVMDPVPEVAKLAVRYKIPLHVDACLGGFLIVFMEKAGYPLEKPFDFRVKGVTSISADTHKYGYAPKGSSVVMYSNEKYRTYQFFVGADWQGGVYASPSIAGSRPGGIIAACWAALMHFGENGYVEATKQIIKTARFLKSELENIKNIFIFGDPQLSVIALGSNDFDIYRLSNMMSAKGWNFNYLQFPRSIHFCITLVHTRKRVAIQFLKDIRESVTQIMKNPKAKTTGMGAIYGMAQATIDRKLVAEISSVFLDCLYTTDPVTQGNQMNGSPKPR
# [2] = 11MO and 16MO mdx mice, Oil Red-O
# [3] = 11MO mdx mice, dye injected day 17 post injury
# [4] = 11 month-old mdx mice, vs vehicle
# [5] = aged mdx mice, 18 days post CTX injury, vs vehicle
smiles,measurement,setting,value
"CC(=O)c1ncc([C@@H](O)[C@H](O)[C@H](O)CO)[nH]1 [THI, 1-[5-[(1R,2S,3R)-1,2,3,4-tetrahydroxybutyl]-1H-imidazol-2-yl]-ethanone]",ratio of fat deposition in injured TAs over uninjured contralateral TAs,mdx mice; [2],significantly reduced in THI treated vs. control animals in 11MO (*) but not 16 MO mdx mice
same,ratio of injured over uninjured fat deposits in quadriceps,mdx mice; [2],significantly reduced in 16MO (#) but not in the 11MO mdx mice
same,Evans Blue positive fibers in injured quadriceps over entire cross-sectional area,mdx mice; [3],< 5
same,Evans Blue positive fibers in uninjured contralateral quadriceps,mdx mice; [3],almost zero
same,mean number of satellite cells (Pax7+ nuclei) in limb muscles (TAs and Quadriceps),mdx mice; [4],significant increase
same,"minimum fiber diameter, uninjured and injured quadriceps and diaphragms",mdx mice; [4],significant increase
same,"ratio of dry weight of CTX injured over uninjured quadriceps, normalized to body weight","mdx mice; 16 month-old mdx males, 18 days post injury",ratio close to one
same,"muscle fiber size, uninjured quadriceps","mdx mice; 16 month-old mdx males, vs vehicle",significant increase
same,overall histological muscle morphology of injured muscles,"mdx mice; aged mdx mice, 18 days post CTX injury",more organized
same,average fat deposition in injured TAs (Oil Red-O),mdx mice; [5],significantly lower average fat deposition
same,fibrosis in injured TAs and quadriceps muscles (Picrosirius Red),mdx mice; [5],significantly reduced fibrosis
same,plasma CK levels,[1],reduced
same,SPL activity when administered to mice,SPL,inhibits SPL activity
